The values below are quoted from earlier work in patent US11034658B2, “Pyridinyl pyrazoles as modulators of RORγT” (Janssen Pharmaceutica NV, priority 2018, dated 2021).

Structures are written as SMILES.

Data set [1] relates to Th17-dependent learned helplessness. Particulars: mice; cited from earlier work.
In another data set the test system is obese diabetic mice. The note with it: cited from earlier work.

With `CC(=O)Nc1nc(C)c(S(=O)(=O)Nc2ccc(C(O)(C(F)(F)F)C(F)(F)F)cc2)s1` [SR1001], the Th17-dependent learned helplessness entry in data set [1] is given as “reduced Th17-dependent learned helplessness”.
On to `CC(=O)N1CCN(Cc2ccc(-c3ccc(C(O)(C(F)(F)F)C(F)(F)F)cc3)cc2)CC1` [SR1555], for which, in the data set on obese diabetic mice, the body weight result is listed as “reduced body weight”, the fat mass result is given as “significant reduction in fat mass”, the food intake entry was “modest reduction in food intake” and the insulin sensitivity entry was “improved insulin sensitivity”.
